Test system: NCI-H2122
Test: Repeat cell proliferation assay
Type: cell-based, human
Conditions: NCI-H2122 TP53 mutant (Q16L and C176F)
Description: . Cell lines were partitioned into sensitive and insensitive groups based on compound potency (IC50). […]. Forty seven cell lines were categorized as sensitive and 309 cell lines as insensitive. For the sensitive cell lines, the maximal compound effect level (Amax) was ≤ −50% (Figure 1C,D, Figure 1—source data 1). […].

**Q.** `COc1cc2c(cc1OC(C)C)[C@H](c1ccc(Cl)cc1)N(c1ccc(N(C)C[C@H]3CC[C@H](N4CCNC(=O)C4)CC3)cc1)C(=O)C2` [NVP-CFC218] was tested. Which “sensitivity in repeat cell proliferation assays” value did it give?
**A.** Its value is “confirmed”.
